Measurements published in PubChem BioAssay AID2060897 (Molecular Pharmacology Branch, DTP, NCI, 2025).
Values joined by “and” are separate entries in the source; they are usually repeats but may differ in a detail not shown here. Identical values can stand only once.

System: 966289-007-R4-J1-PDC complex spheroid viability
Assay: Anticancer human tumor 966289-007-R4-J1-PDC patient-derived pancreatic adenocarcinoma cell line growth inhibition [RAS]
Details: for viability, T/C: stronger effect = lower value
Source text: RAS pathway inhibitors in Combinations in Complex Spheroids
A high-throughput screen of multi-cell type tumor spheroids was designed to identify active combinations of RAS pathway inhibitors and targeted small molecules. Complex spheroids include a stromal component modeled by human endothelial cells (HUVEC) and fibroblasts modeled by human mesenchymal stem cells (MSCs). The concentration ranges selected for each drug and investigational agent were based upon clinically achievable concentrations if the clinical Cmax of the agent was known.
Compounds. The drugs and investigational agents: abemaciclib (NSC768073), cobimetinib (NSC768068), divarasib (GDC6063, NSC841802), docetaxel (NSC628503), GDC-1971 (RLY-1971, NSC841576), gemcitabine (NSC613327), inavolisib (NSC800729), ipatasertib (NSC767898), KB-0742 (NSC834161), MRTX-1133 (NSC836407), osimertinib (NSC779217), RMC-4630 (NSC839698), RMC-6236 (NSC851965), RMC-6291 (NSC852671), Ro-3306 (NSC812927), sapanisertib (NSC764658), SN-38 (NSC673596), staurosporine (NSC755774), SY5609 (NSC837396), and tovorafenib (DAY101, NSC766906), were obtained from the National Cancer Institute (NCI) Developmental Therapeutics Program Chemical Repository. The FDA-approved anticancer drug set is available from the NCI Developmental Therapeutics Program. […] The stock solutions were prepared in dimethyl sulfoxide (DMSO, Sigma-Aldrich, St. Louis, MO, cat. D2650) at 800-fold the tested concentration and stored at -70 degrees C prior to their use. All drugs and investigational agents were tested over a range starting from a high concentration at or near the clinical Cmax and decreasing in half-log increments. If the clinical Cmax for an agent had not been determined, the highest concentration tested was 10 microM.
Cell Culture. All cells were maintained in an incubator at 37 degrees C and 5% CO2 with 95% humidity. The PDC lines were cultured according to standard operating procedures established by the NCI PDMR. All PDCs were thawed and cultured in Matrigel-coated flasks prepared with a working solution of 1X Ham's F-12 nutrient mix, without supplementation (Invitrogen, Waltham, MA, cat. 11765054), 100 U/mL penicillin-streptomycin (Invitrogen, cat. 15140122), and 2.5% Matrigel (Corning Inc., Corning, NY, cat. 354248) for the first three passages. The 362531-283-R-J2-PDC and 782815-120-R-J1-PDC lines were cultured in 6C/Colon 1B media, which includes advanced DMEM/F-12 (Thermo Fisher Scientific, cat. 12634028), 10 mM HEPES (Thermo Fisher Scientific, cat. 15630080), 1X GlutaMAX supplement (Thermo Fisher Scientific, cat. 35050061), 0.1 mg/mL primocin (InvivoGen, San Diego, CA, cat. ant-pm-2), 10% defined fetal bovine serum, heat inactivated (HyClone Laboratories Inc., Logan, UT, cat. SH30070.03HI), 50% L-WRN conditioned media (ATCC, cat. CRL-3276), 1.25 mM N-Acetyl-L-cysteine (Sigma-Aldrich, cat. A9165), 10 mM nicotinamide (Sigma-Aldrich, cat. N0636), 1X B-27 supplement (Thermo Fisher Scientific, cat. 17504044), 1X N-2 supplement (Thermo Fisher Scientific, cat. 17502048), 50 ng/mL human EGF (Thermo Fisher Scientific, cat. PHG0311), and 10 microM Y-27632 dihydrochloride (Tocris Bioscience, cat. 1254). The K12877-001-R-J1-PDC line was cultured in 6I media, which includes all 6C/Colon 1B media plus 10 ng/mL human FGF-10 (PeproTech, cat. 100-26), 1 ng/mL human FGF-2 (PeproTech, cat. 100-18B), 1 µM prostaglandin E2 (Tocris Bioscience, cat. 2296), […] hydrocortisone (Sigma-Aldrich, cat. H4001), and […] bovine insulin (Sigma-Aldrich, cat. I6634). The K86415-001-R-J1-PDC line was cultured in 6D media, which includes all 6C/Colon 1B media components minus the L-WRN conditioned media. The 485176-168-R4-J1-PDC was cultured in PANC media, which includes all 6C/Colon 1B media plus 100 ng/mL human FGF-10 (PeproTech, cat. 100-26), 500 nM SB-431542 (Selleckchem, cat. S1067), and 10 nM gastrin (Tocris Bioscience, cat. 3006). […]

[1] = compound alone, run of 06/10/2024
[2] = compound alone, run of 05/20/2024
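Note: spheroids exposed to agents for one week before readout.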
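Throughout, for viability, T/C: percent viability relative to DMSO vehicle control wells as 100%.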

IC50 (curve of compound) | Compound | viability, T/C (compound 0.316 µM) | viability, T/C (compound 0.0316 µM) | viability, T/C (compound 0.1 µM) | viability, T/C (compound 1 µM) | viability, T/C (compound 10 µM) | other results
 | C#Cc1c(F)ccc2cc(O)cc(-c3ncc4c(N5CC6CCC(C5)N6)nc(OCC56CCCN5CC(F)C6)nc4c3F)c12 (centres undefined) | 114% [middle of 8 runs] |  |  |  |  | viability, T/C (compound 3.16 µM): 94.4% [middle of 8 runs]; IC50 [1]: > 10 µM
> 1 µM | C=CC(=O)N1CCN(c2nc(OCC3CCCN3C)nc3c(F)c(-c4nc(N)cc(C)c4C(F)(F)F)c(Cl)cc23)C(C)C1 (centres undefined) |  |  |  |  |  | IC50 [1]: > 1 µM
> 1 µM | C=CC(=O)Nc1cc(Nc2nccc(-c3cn(C)c4ccccc34)n2)c(OC)cc1N(C)CCN(C)C |  | 100% [middle of 4 runs] |  |  |  | 
< 0.0316 µM | CC(=O)OC12COC1CC(O)C1(C)C(=O)C(O)C3=C(C)C(OC(=O)C(O)C(NC(=O)OC(C)(C)C)c4ccccc4)CC(O)(C(OC(=O)c4ccccc4)C21)C3(C)C (centres undefined) | 15.4% [middle of 4 runs] | 7.82% [middle of 4 runs] | 14.1% [middle of 4 runs] | 19.7% [middle of 4 runs] | 67% [middle of 4 runs] | viability, T/C (compound 3.16 µM): 38.3% [middle of 4 runs]
5.43 µM [middle of 4 runs] | CC(C)NCC(C(=O)N1CCN(c2ncnc3c2C(C)CC3O)CC1)c1ccc(Cl)cc1 (centres undefined) | 115% [middle of 4 runs] | 105% [middle of 4 runs] |  | 105% [middle of 4 runs] | 34.2% [middle of 4 runs] | viability, T/C (compound 3.16 µM): 64% [middle of 4 runs]
33.4 nM [middle of 4 runs] | CC(C)n1nc(-c2ccc3oc(N)nc3c2)c2c(N)ncnc21 |  | 52.2% [middle of 4 runs] | 18.5% [middle of 4 runs] |  |  | 
> 10 µM | CC(Nc1ccc2c(c1)OCCn1cc(N3C(=O)OCC3C(F)F)nc1-2)C(N)=O (centres undefined) | 101% (2×) and 121% and 106% |  |  |  | 87.9% [middle of 4 runs] | 
 | CC1(C)CCC(Nc2ncc(C(F)(F)F)c(-c3c[nH]c4c(P(C)(C)=O)c(C#N)ccc34)n2)CN1 (centres undefined) |  |  |  |  |  | viability, T/C (compound 0.03 µM): 15.1% [middle of 4 runs]; viability, T/C (compound 0.0949 µM): 10.5% [middle of 4 runs]; viability, T/C (compound 0.3 µM): 8.72% [middle of 4 runs]
145 nM [middle of 4 runs] | CC1(O)CCCC1n1c(=O)c(C(F)F)cc2cnc(NC3CCN(S(C)(=O)=O)CC3)nc21 (centres undefined) | 27.7% [middle of 4 runs] |  | 56.9% [middle of 4 runs] | 31.8% [middle of 4 runs] | 4.66% [middle of 4 runs] | viability, T/C (compound 3.16 µM): 28.4% [middle of 4 runs]
1.86 µM [middle of 4 runs] | CCC(CC)c1cc(NC2CCC(N)C2)n2nccc2n1 (centres undefined) | 109% [middle of 4 runs] |  | 92.7% [middle of 4 runs] |  | 2.13% [middle of 4 runs] | viability, T/C (compound 3.16 µM): 2.28% [middle of 4 runs]
> 1 µM | CCN1CCN(Cc2ccc(Nc3ncc(F)c(-c4cc(F)c5nc(C)n(C(C)C)c5c4)n3)nc2)CC1 | 94.4% [middle of 4 runs] |  |  | 84% [middle of 4 runs] |  | viability, T/C (compound 0.00316 µM): 113% [middle of 4 runs]; viability, T/C (compound 0.01 µM): 100% [middle of 4 runs]
1.62 nM [middle of 4 runs] | CCc1c2c(nc3ccc(O)cc13)-c1cc3c(c(=O)n1C2)COC(=O)[C@]3(O)CC |  |  |  |  |  | viability, T/C (compound 0.003 µM): 2.73% [middle of 4 runs]; viability, T/C (compound 0.00949 µM): 1.18% [middle of 4 runs]; viability, T/C (compound 0.03 µM): 0.96% [middle of 4 runs]; viability, T/C (compound 0.0949 µM): 0.88% [middle of 4 runs]; viability, T/C (compound 0.3 µM): 0.94% [middle of 4 runs]
 | CCn1c(-c2cc(N3CCN(C)CC3)cnc2C(C)OC)c2c3cc(ccc31)-c1csc(n1)CC(NC(=O)C1CC1C)C(=O)N1CCCC(N1)C(=O)OCC(C)(C)C2 (centres undefined) |  |  |  |  |  | viability, T/C (compound 0.000949 µM): 97.8% [middle of 8 runs]; IC50 [2]: > 0.3 µM
 | CCn1c(-c2cccnc2C(C)OC)c2c3cc(ccc31)N1CCOC(CC(NC(=O)C(C(C)C)N(C)C(=O)C3(F)CCN(C(=O)C#CC(C)(C)N(C)C)CC3)C(=O)N3CCCC(N3)C(=O)OCC(C)(C)C2)C1 (centres undefined) |  |  |  |  |  | viability, T/C (compound 0.0949 µM): 83.6% [middle of 8 runs]; IC50 [2]: > 0.3 µM
> 10 µM | C[C@@H](NC(=O)c1ncnc(N)c1Cl)c1ncc(C(=O)Nc2cc(C(F)(F)F)c(Cl)cn2)s1 |  | 106% [middle of 4 runs] |  |  | 99.5% [middle of 4 runs] | 
> 10 µM | Cc1nc(N2CCC3(CC2)COC(C)C3N)c(CO)nc1Sc1ccnc(N)c1Cl (centres undefined) | 108% [middle of 4 runs] |  |  | 102% (2×) and 73.6% and 119% | 95.5% [middle of 4 runs] | 
> 10 µM | NC1c2ccccc2OC12CCN(c1cnc3c(N4CCCc5ncccc54)n[nH]c3n1)CC2 (centres undefined) | 107% [middle of 4 runs] |  | 92.9% [middle of 4 runs] | 116% and 63.2% and 101% (2×) | 99.6% [middle of 4 runs] | 
7.29 nM [middle of 4 runs] | Nc1ccn(C2OC(CO)C(O)C2(F)F)c(=O)n1 (centres undefined) | 0.85% and 1.16% and 1.48% | 1.12% and 1.45% (2×) and 1.74% | 1.25% [middle of 4 runs] | 1.33% [middle of 4 runs] |  | viability, T/C (compound 0.00316 µM): 100% and 92.9% and 103% (2×); viability, T/C (compound 0.01 µM): 30.1% [middle of 4 runs]
 | O=C(c1ccc(F)c(F)c1Nc1ccc(I)cc1F)N1CC(O)([C@@H]2CCCCN2)C1 | 68.9% [middle of 4 runs] | 90.4% [middle of 4 runs] | 75.8% [middle of 4 runs] |  |  | viability, T/C (compound 0.00316 µM): 90.5% [middle of 4 runs]; viability, T/C (compound 0.01 µM): 97.5% [middle of 4 runs]
